One assay deals with glucose and GLP-1 levels. Description: oral glucose tolerance test. The following applies: vs methylcellulose. Type of assay: in vivo, mice. The source says:
GLP-1 is degraded in vivo by dipeptidyl peptidase-4 (DPP-4). DPP-4 inhibitors include, for example without limitation, sitagliptin, vildagliptin, saxagliptin, linagliptin, dutogliptin, gemigliptin, alogliptin and berberine. To test whether the DPP-4 inhibitor sitagliptin can prevent glucose level increases and elevated GLP-1 levels, four groups of 12 month old male C57BI/6 mice (n=4-5) were fasted overnight and subjected to an oral glucose tolerance test the following morning. One hour prior to oral glucose challenge, test animals were orally dosed with either 1 mg/kg or 10 mg/kg sitagliptin. […] After oral glucose challenge, glucose levels were test at 20, 40, 60 and 120 minutes. Blood samples were also taken at 20 minutes after glucose challenge to check glucose and GLP-1 levels.

The next assay deals with GLP-1 levels. The assay can be described thus: blood GLP1 levels in EAE mice at day 5 after immunization. Type of assay: in vivo. The conditions noted are these: 10 mg/kg once daily, vs methylcellulose. The source says: (§1) At day 5 after immunization, blood samples were taken for measurement of GLP1 levels. […] To monitor disease progression, animals were scored daily for morbidity as follows: 0=normal; 1=limp tail; 2=moderate hind limb weakness; 3=moderately severe hind limb weakness (animal can still walk with difficulty); 4=severe hind limb weakness (animal can move its hind limbs but cannot walk); 5=complete hind limb paralysis; and 6=death.

Assay [1] relates to EAE in MOG (35-55) immunized C57BL/6 mice. The assay can be described thus: EAE clinical score (morbidity) after MOG (35-55) immunization. Type of assay: in vivo. The procedure: EAE was induced in female C57BL/6 mice by s.c. injection of 200 μg of the encephalitogenic peptide MOG (35-55) emulsified in CFA (Difco) and supplemented with 4 mg/ml of M. tuberculosis (Difco) on experiment day 0, followed immediately and again after 48 hours by 400 ng of pertussis toxin injected i.v.
Animals were scored for morbidity as follows: 0=normal; 1=limp tail; 2=moderate hind limb weakness; 3=moderately severe hind limb weakness (animal can still walk with difficulty); 4=severe hind limb weakness (animal can move its hind limbs but cannot walk); 5=complete hind limb paralysis; and 6=death.
Another group of mice were treated on a weekly basis with 1mg/kg GAC-1 (n=10). The mice were assessed daily for clinical signs of EAE according to the following scale: 0=normal; 1=limp tail; 2=moderate hind-limb weakness; 3=moderately severe hind-limb weakness (animal can still walk); 4=severe hind-limb weakness (animal can move their hind-limbs but cannot walk); 5=complete hind limb paralysis; 6=death.
In a separate experiment, EAE was induced as described above. […] A second group of animals were treated with 3 mg/kg GAC-1 on day 0 after MOG immunization, followed by weekly treatments of 1 mg/kg GAC-1 starting on day 7 after immunization. A third group of animals were treated daily with PBS (control, n=10). Clinical scores were monitored daily following criteria described above.
as §1

The subject of assay [2] is IL-17+ and IFN-γ+ cells (Th17 and Th1). The assay can be described thus: IL-17+ and IFN-γ+ CD4 cells in inguinal lymph nodes by FACS. Type of assay: in vivo, mice. The following applies: inguinal lymph node; exendin-4 1 mg/kg or dexamethasone 4 mg/kg daily; day 5 or 7.
The subject of assay [3] is lymphocytes, monocytes, CD4+, CD8+, CD19+ and Ter119+ cells. Description: immune cell populations in EAE animals by FACS. Type of assay: in vivo, mice. The following applies: spleen, day 5; exendin-4 1 mg/kg or dexamethasone 4 mg/kg daily.
A further assay concerns thymocytes. Description: CD4, CD8 double positive thymocytes in naïve and EAE animals (Table 5). Type of assay: in vivo, mice. The conditions noted are these: exendin-4 1 mg/kg or dexamethasone 4 mg/kg, day 6. The text has this: EAE was induced in 8 week old C57B1/6 mice by subcutaneous injections of MOG/CFA followed by i.p. injection of pertussis toxin. […] Dexamethasone is known to cause T cell death. On day 6 after immunization, thymi were harvested. Thymocytes were isolated, stained with anti-CD4 and anti-CD8 antibodies and analyzed by flow cytometry.

For `N[C@@H](CC(=O)N1CCn2c(nnc2C(F)(F)F)C1)Cc1cc(F)c(F)cc1F` [sitagliptin], the “glucose levels after oral glucose challenge” value with glucose and GLP-1 levels (1 mg/kg or 10 mg/kg oral, not statistically significant by two-way ANOVA) is on record as “trend toward lower glucose levels”. Moreover, the “blood GLP-1 levels 20 minutes after oral glucose challenge” value in the assay on glucose and GLP-1 levels (either dose (1 mg/kg or 10 mg/kg oral)) is given as “significantly increased blood GLP-1 levels”. Further, the “GLP-1 levels at day 5 after immunization” value in the assay with GLP-1 levels is given as “significantly higher GLP-1 levels”. The “disease score from day 18 to day 20” value in assay [1] (10 mg/kg once daily, vs methylcellulose) is on record as “significantly lower”. In addition, the “morbidity (EAE clinical score)” value in assay [1] (once daily day 0 to day 28, exendin-4 1 mg/kg, sitagliptin 1 or 10 mg/kg, vs methylcellulose, FIG. 18) is on record as “significantly reduced morbidity”. In addition, the “EAE progression / disease symptoms” value in assay [1] (once daily day 0 to day 28, exendin-4 1 mg/kg, sitagliptin either 1 mg/kg or 10 mg/kg, FIG. 18) is listed as “trend towards attenuating disease symptoms”.

For the molecule `C[C@@H]1C[C@H]2[C@@H]3CCC4=CC(=O)C=C[C@]4(C)[C@@]3(F)[C@@H](O)C[C@]2(C)[C@@]1(O)C(=O)CO` [dexamethasone], the “reduction of IL-17+ cells in EAE animals” value in assay [2] turned out to be 50%. Also, in assay [3], the “reduction of Ter119+ cells in EAE animals” value is 20-25%. Further, the results for the “% CD4, CD8 double positive cells” value in the assay on thymocytes (EAE mice) and in the assay on thymocytes (Naïve mice) were 1.5±0.5% and 12.4±3.3%, respectively.

Values taken from patent publication US20120148586A1, “GLUCAGON-LIKE PROTEIN-1 RECEPTOR (GLP-1R) AGONISTS FOR TREATING AUTOIMMUNE DISORDERS” (priority 2009, published 2012).
